molecular target: human SSTR2 (Homo sapiens (Human), UniProt P30874); test: Human SSTR2 intracellular cAMP functional assay for agonists (CHO-K1 cells, HTRF); assay type: cell-based; conditions: inhibition of cAMP activities via human SST2R; CHO-K1 cells stably expressing human SSTR2
Experimental: Functional Assay for SSTR2 Agonists
General overview: All five SSTR subtypes are Gi coupled G-protein coupled receptors (GPCRs) that lead to decreases in intracellular cyclic AMP (cAMP) when activated by an agonist. […] Human SSTR2 intracellular cAMP assay is described below. The human SSTR1, 3, 4 and 5 assays follow the same protocol of SSTR2.
The cells are cultured at 37° C., 5% CO2 and 95% humidity. […] The cells are incubated for 20 minutes at 37° C. […] The cells are treated with 50 μL of lysis buffer (HRTF cAMP kit, Cisbio). […] The time-resolved fluorescent signal is read with a Tecan M1000Pro multiplate reader. The intracellular cAMP concentrations are calculated by regression to a standard curve and are plotted vs. the concentration of the compounds of the invention and the EC50 of the compounds are calculated using standard methods. All data manipluations are in GraphPad Prism v6.

human SSTR2, sequence (P30874 whole entry): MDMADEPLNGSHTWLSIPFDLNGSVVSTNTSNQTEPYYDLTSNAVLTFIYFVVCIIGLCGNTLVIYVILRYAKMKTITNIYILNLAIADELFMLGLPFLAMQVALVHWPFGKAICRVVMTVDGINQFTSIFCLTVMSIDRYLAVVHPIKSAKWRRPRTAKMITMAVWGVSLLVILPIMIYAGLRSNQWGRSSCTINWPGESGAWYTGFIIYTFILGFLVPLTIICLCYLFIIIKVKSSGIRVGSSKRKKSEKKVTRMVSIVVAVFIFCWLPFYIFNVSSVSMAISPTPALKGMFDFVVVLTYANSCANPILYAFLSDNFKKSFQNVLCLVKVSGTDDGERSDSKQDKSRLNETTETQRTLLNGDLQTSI

| EC50 | SMILES |
| --- | --- |
| < 10 nM | Nc1ncccc1-c1ccc2ncc(-c3cc(F)cc(F)c3)c(N3CC[C@H]4NCCO[C@@H]4C3)c2c1 (racemic) [2-246] |
| < 10 nM | C#Cc1ccnc(-c2ccc3ncc(-c4cc(F)cc(F)c4)c(N4CC[C@H]5NCCO[C@@H]5C4)c3c2)c1N [2-277, 2-{4-[trans-octahydro-1H-pyrido[3,4-b]morpholin-6-yl]-3-(3,5-difluorophenyl)quinolin-6-yl]-4-ethynylpyridin-3-amine] |
| < 10 nM | N#Cc1cncc(-c2ccc3ncc(-c4cc(F)cc(F)c4)c(N4CC[C@H]5NCCO[C@@H]5C4)c3c2)c1N (racemic) [2-244, 5-{4-[trans-octahydro-1H-pyrido[3,4-b]morpholin-6-yl]-3-(3,5-difluorophenyl)quinolin-6-yl}-4-aminopyridine-3-carbonitrile] |

The next lines start with the compound.

| SMILES | EC50 |
| --- | --- |
| Cc1cc(F)cc(-c2cnc3ccc(-c4cc(F)cc(C#N)c4O)nc3c2N2CCC(N)CC2)c1 [3-2, 3-[8-(4-aminopiperidin-1-yl)-7-(3-fluoro-5-methylphenyl)-1,5-naphthyridin-2-yl]-5-fluoro-2-hydroxybenzonitrile] | < 10 nM |
| Cc1cc(F)cc(-c2nnc3cc(Cl)c(-c4cc(F)cc(C(N)=O)c4)cc3c2N2CC[C@@H](N)[C@H](O)C2)c1 (relative stereo) [1-26, 3-{4-[trans-4-amino-3-hydroxypiperidin-1-yl]-7-chloro-3-(3-fluoro-5-methylphenyl)cinnolin-6-yl}-5-fluorobenzamide] | < 10 nM |
| COC(=O)Nc1c(F)cncc1-c1ccc2ncc(-c3cc(C)cc(F)c3)c(N3CCC(N)CC3)c2c1 [2-171, methyl N-{3-[4-(4-aminopiperidin-1-yl)-3-(3-fluoro-5-methylphenyl)quinolin-6-yl]-5-fluoropyridin-4-yl}carbamate] | < 10 nM |
| COC(=O)Nc1ncc(F)cc1-c1ccc2ncc(-c3cc(C)cc(F)c3)c(N3CCC(N)CC3)c2c1 [2-182, methyl N-{3-[4-(4-aminopiperidin-1-yl)-3-(3-fluoro-5-methylphenyl)quinolin-6-yl]-5-fluoropyridin-2-yl}carbamate] | < 10 nM |
